Where two headings read alike, the source gives them in different places.
How the values were obtained:
Staphylococcus aureus [1] = assay: Control: microbicidal activity of the amino acid or analogue alone (no glucose, MPO, glucose oxidase) in the presence of blood; format: cell-based; conditions: for log reduction at 5000 µM: Staphylococcus aureus, 1 h, read-out: Log Reduction 60 min
From the text: As a control to determine the microbicidal activity of the amino acids alone, the foregoing procedure was followed without replication, except in the absence of glucose, MPO, and glucose oxidase.

Staphylococcus aureus [2] = assay: Microbicidal activity of the myeloperoxidase system (p-MPO, glucose oxidase, glucose) with amino acids in the presence of blood, CFU plate counts; synergy determination from these CFU; format: cell-based; conditions: for Average Viability CFU/ml 50 min / Log Reduction 50 min: MPO 4.7 U/ml, GO 4.2 U/ml
Method: Bacterial suspensions, specifically Staphylococcus aureus in this example, were prepared by the shake flask method to achieve late log to early stationary phase growth. Bacteria were grown 24 hours in trypticase soy broth (TSB) at 35° C. The cultures were centrifuged at 4,000 rpm for 10 minutes and the supernatants removed. The pellet was collected and washed twice with sterile 0.9% normal saline (NS). The washed microorganisms were suspended and diluted with normal saline to a 3 McFarland standard, i.e., approximately 10^9 bacteria colony forming units (CFU) per mL. Actual colony counts are confirmed by serial dilutions (10^−1 to 10^−5 or 10^−6) plated on TSA and incubated overnight at 35° C. To obtain an approximate final working target inoculum of 10^7 CFU/mL, 15 microliters of organisms per mL of final reaction mixture are used.
Glucose oxidase (GO) from Aspergillus Niger was purchased from Biozyme, Inc., UK, Cat #GO3A, 270 U/mg). Porcine Myeloperoxidase (p-MPO) (Exoxemis, Inc., Little Rock, Ark. U.S.A., 375 U/mg). Sterile stock solutions of D-glucose and sodium chloride were prepared and used at a final concentration of 150 mM each. L-Lysine hydrochloride (Spectrum Chemical Cat #L1142) was prepared as a 100 mM stock solution. Catalase (Sigma, Cat #C-40) was prepared as a 1% stock solution in sterile 0.9% normal saline. Blood was collected by venipuncture and used as whole blood within the same day.
Staphylococcus aureus were used to give a final target concentration of 2-3×10^7 CFU (7.4 log 10) per mL and venous whole blood was used to give a final concentration of 3%. Glucose was added to the reaction mixtures to a final concentration of 150 mM, which initiated the microbicidal reaction. The final volume of the reaction mixtures was 1 mL. The reactions were allowed to run from 30 minutes to 2 hours, as needed, at room temperature or at 37° C. in a dry bath. At the specified time points the reaction mixtures were treated with 100 microliters of a catalase solution, containing a minimum of 100 units/μL, to consume remaining peroxide and terminate the oxidative killing. Serial dilution plate counts were performed from the contents of each vial in sterile saline and inoculated onto trypticase soy agar (TSA) for quantitative culture. Plates were then incubated at 37° C. and counts taken at 24 hours. […] The results are shown in Table 1, as the average of 2 replicates.
The amino acids alone, in the absence of MPO were tested to rule out their microbicidal activity. The results are shown in Table 2 to Table 6, as the average of 2 replicates.
The amino acid analogues alone, in the absence of MPO, were tested to rule out their microbicidal activity. […]
The effect of two-way combinations of individual amino acids with L-isoleucine, as potential enhancing agents, for MPO microbicidal action in the presence of blood, was therefore examined by following the procedure of Example 5.
The Actual CFU observed for the pair is then divided by the Predicted CFU and multiplied by 100 to calculate the % of Predicted value. This value is then to be compared to the threshold value, discussed in the next section, to determine whether the pair are synergistic, antagonistic, or additive.
Calculation of appropriate threshold values for determination of synergism and antagonism was based upon the variability of replicated CFU survivor measures.

[3] = amino acid alone 5 mM, MPO 0, GO 0, no glucose, blood, without replication
[4] = MPO 100 μg/mL, AA 20 mM, 30 min
[5] = MPO 100 μg/mL, AA 20 mM, 60 min
[6] = Table 4, amino acid 5 mM (none: 0 mM), MPO 38 U/ml, GO 33.3 U/ml, blood
[7] = Table 11, single amino acid 2.5 mM, in the presence of blood, 50 min
[8] = Table 13, single amino acid 2.5 mM, in the presence of blood, 50 min
[9] = Table 14, single amino acid 2.5 mM, in the presence of blood, 50 min
[10] = Table 19, amino acid (racemic, L- or D-form) 2.5 mM, 50 min
[11] = Table 2, amino acid 5 mM (none: 0 mM), MPO 38 U/ml, GO 33.3 U/ml, blood
[12] = amino acid analogue alone 5 mM, MPO 0, GO 0, no glucose, blood
[13] = Table 7, amino acid analogue 5 mM, MPO 38 U/ml, GO 33.3 U/ml, blood
[14] = Table 3, amino acid 5 mM (none: 0 mM), MPO 38 U/ml, GO 33.3 U/ml, blood
[15] = Table 10, single amino acid 2.5 mM, in the presence of blood, 50 min
[16] = Table 19, amino acid 3.5 mM, 50 min
[17] = single amino acid 2.5 mM, blood

Row | Structure (SMILES) | log reduction at 5000 µM (Staphylococcus aureus [1]; [3]) | Average Viability CFU/ml 60 min (Staphylococcus aureus [1]; [3]) [CFU/ml] | Log 10 (CFU + 1) Survivors (Staphylococcus aureus [2]; MPO 25 μg/mL, AA 5 mM, 30 min) | Log 10 (CFU + 1) Survivors (Staphylococcus aureus [2]; MPO 25 μg/mL, AA 5 mM, 60 min) | Log 10 (CFU + 1) Survivors (Staphylococcus aureus [2]; MPO 25 μg/mL, AA […], 30 min) | Log 10 (CFU + 1) Survivors (Staphylococcus aureus [2]; MPO 25 μg/mL, AA […], 60 min) | Log 10 (CFU + 1) Survivors (Staphylococcus aureus [2]; MPO 100 μg/mL, AA 5 mM, 30 min) | Log 10 (CFU + 1) Survivors (Staphylococcus aureus [2]; MPO 100 μg/mL, AA 5 mM, 60 min) | Log 10 (CFU + 1) Survivors (Staphylococcus aureus [2]; [4]) | Log 10 (CFU + 1) Survivors (Staphylococcus aureus [2]; [5]) | Average Viability CFU/ml 50 min (Staphylococcus aureus [2]; [7]) [CFU/ml] | Log Reduction 50 min (Staphylococcus aureus [2]; [7]) | Average Viability CFU/ml 60 min (Staphylococcus aureus [2]; [11]) [CFU/ml] | Log 10 (CFU + 1) Survivors 60 min (Staphylococcus aureus [2]; [11]) | Log Reduction 60 min (Staphylococcus aureus [2]; [11]) | further results
1 | CC(C)C[C@@H](N)C(=O)O [D-Leucine] | 0 | 24400000 | 3.8 | 2.2 | 6.7 | 2.1 | 2.7 | 2.0 | 1.8 | 1.9 | 313000 | 1.9 |  |  |  | Average Viability CFU/ml 60 min (Staphylococcus aureus [2]; [6]): 66550 CFU/ml; Log Reduction 60 min (Staphylococcus aureus [2]; [6]): 2.6; Average Viability CFU/ml 50 min (Staphylococcus aureus [2]; [8]): 119000 CFU/ml; Log Reduction 50 min (Staphylococcus aureus [2]; [8]): 2.3; Average Viability CFU/ml 50 min (Staphylococcus aureus [2]; [9]): 163500 CFU/ml; Log Reduction 50 min (Staphylococcus aureus [2]; [9]): 2.2; Average Viability CFU/ml 50 min (Staphylococcus aureus [2]; [10]): 215000 CFU/ml; Log Reduction 50 min (Staphylococcus aureus [2]; [10]): 2.1
2 | N=C(N)NCCC[C@H](N)C(=O)O [L-Arginine] |  | 23600000 |  |  |  |  |  |  |  |  |  |  | 5450000 | 6.7 | 0.6 | log reduction at 5000 µM (Staphylococcus aureus [1]): 0; enhancement of MPO microbicidal activity (in words) (Staphylococcus aureus [2]; amino acid 5 mM, MPO 38 U/ml, GO 33.3 U/ml, blood): essentially inactive
3 | Cl.NCC(N)C(=O)O (racemic) [DL-2,3-Diaminopropionic acid monohydrochloride] |  |  |  |  |  |  |  |  |  |  |  |  |  |  |  | log reduction at 5000 µM (Staphylococcus aureus [1]; [12]): 0; Average Viability CFU/ml 60 min (Staphylococcus aureus [1]; [12]): 20600000 CFU/ml; Average Viability CFU/ml 60 min (Staphylococcus aureus [2]; [13]): 0 CFU/ml; Log Reduction 60 min (Staphylococcus aureus [2]; [13]): 7.4
4 | CC(C)C[C@H](N)C(=O)O [L-Leucine] | 0.1 | 18700000 | 4.1 | 0.0 | 3.9 | 0.0 | 0.0 | 0.0 | 0.0 | 0.0 | 200500 | 2.1 |  |  |  | Average Viability CFU/ml 60 min (Staphylococcus aureus [2]; [14]): 0 CFU/ml; Log 10 (CFU + 1) Survivors 60 min (Staphylococcus aureus [2]; [14]): 0.0; Log Reduction 60 min (Staphylococcus aureus [2]; [14]): 7.3; Average Viability CFU/ml 50 min (Staphylococcus aureus [2]; [15]): 214500 CFU/ml; Log Reduction 50 min (Staphylococcus aureus [2]; [15]): 2.1; Average Viability CFU/ml 50 min (Staphylococcus aureus [2]; [16]): 204000 CFU/ml; Log Reduction 50 min (Staphylococcus aureus [2]; [16]): 2.1; Average Viability CFU/ml 50 min (Staphylococcus aureus [2]; [17]): 200500 CFU/ml; Log Reduction 50 min (Staphylococcus aureus [2]; [17]): 2.1
5 | N[C@@H](CS)C(=O)O [L-Cysteine] | 0 | 22400000 |  |  |  |  |  |  |  |  |  |  | 17400000 | 7.2 | 0.1 | 
